For series [1], the system named is Tumour. The experiment in a line: Drug uptake in tumor of athymic nu/nu mouse xenografted with human MDA-MB-436 cells at 200 uCi measured at 60 mins by microPET image analysis. Format: ADME, Neoplasm. The conditions noted are these: 1 h. (A xenograft is tissue or cells of one species grown in another, often human tumour cells in immunodeficient mice.)
In series [2] the test system is Tumour. The experiment in a line: Drug uptake in tumor of athymic nu/nu mouse xenografted with human MDA-MB-436 cells at 200 uCi measured at 60 mins by microPET image analysis in presence of 5,6-Dihydro-2-(4-(2-fluoroethoxy)phenyl)-imidazo[4,5,1-jk][1,4]benzodiazepin-7(4H)-one. Format: ADME, Neoplasm. The conditions noted are these: 1 h.
In series [3] the test system is Tumour. Briefly: Drug uptake in tumor of athymic nu/nu mouse xenografted with human MDA-MB-231 cells at 200 uCi measured at 60 mins by microPET image analysis in presence of olaparib. The series is classed as ADME, Neoplasm. The settings on record: in vivo, 1 h.
The target in series [4] is Poly [ADP-ribose] polymerase 1 (Homo sapiens, UniProt P09874). Briefly: Inhibition of PARP-1 (unknown origin) assessed as NAD+ consumption after 20 mins by fluorometric analysis in presence of activated DNA.
Poly [ADP-ribose] polymerase 1, sequence (P09874 whole entry): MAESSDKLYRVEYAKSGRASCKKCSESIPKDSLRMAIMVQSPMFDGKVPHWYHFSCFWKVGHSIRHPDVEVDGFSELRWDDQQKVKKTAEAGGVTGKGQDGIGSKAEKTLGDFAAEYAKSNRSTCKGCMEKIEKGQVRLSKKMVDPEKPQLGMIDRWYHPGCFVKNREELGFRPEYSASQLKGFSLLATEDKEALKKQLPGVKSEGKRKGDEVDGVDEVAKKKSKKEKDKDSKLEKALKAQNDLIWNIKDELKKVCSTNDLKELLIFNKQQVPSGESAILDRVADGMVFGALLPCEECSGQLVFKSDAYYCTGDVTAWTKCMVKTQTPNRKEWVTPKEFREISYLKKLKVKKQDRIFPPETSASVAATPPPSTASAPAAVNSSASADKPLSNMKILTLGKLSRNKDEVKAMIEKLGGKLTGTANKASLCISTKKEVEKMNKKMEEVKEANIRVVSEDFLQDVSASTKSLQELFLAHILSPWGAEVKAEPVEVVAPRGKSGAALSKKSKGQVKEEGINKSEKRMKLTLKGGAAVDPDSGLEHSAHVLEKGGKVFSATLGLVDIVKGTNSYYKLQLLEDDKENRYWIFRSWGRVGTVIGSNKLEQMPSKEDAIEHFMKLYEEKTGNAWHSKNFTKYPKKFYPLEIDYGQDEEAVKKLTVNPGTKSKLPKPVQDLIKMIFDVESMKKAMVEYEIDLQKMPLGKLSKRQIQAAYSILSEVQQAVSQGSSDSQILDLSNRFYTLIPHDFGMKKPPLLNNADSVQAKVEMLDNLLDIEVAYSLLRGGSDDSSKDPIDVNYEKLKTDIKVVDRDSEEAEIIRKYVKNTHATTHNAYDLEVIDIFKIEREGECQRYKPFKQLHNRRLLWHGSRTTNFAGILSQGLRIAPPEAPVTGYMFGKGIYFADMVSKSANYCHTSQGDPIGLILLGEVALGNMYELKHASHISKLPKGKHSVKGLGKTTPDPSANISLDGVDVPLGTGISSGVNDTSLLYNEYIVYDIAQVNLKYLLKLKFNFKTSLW

For the compound `O=C1NCCn2c(-c3ccc(OCC[18F])cc3)nc3cccc1c32`, the results for the Drug uptake entry with Tumour [1], in the series with Tumour [2] and in the series on Tumour [3] were “Active”, “Not Active” and “Not Active”, respectively.
As usually defined, the IC50 is the concentration needed to halve the response being measured. For `O=C1NCCn2c(-c3ccc(OCCF)cc3)nc3cccc1c32`, the IC50 in series [4] was found to be 6.3 nM.
